Measurements from US7138361B2, “Herbicidal heterocycles” (E. I. du Pont de Nemours and Company, priority 2000, dated 2006).

Experiments:
Format in all cases: in vivo
[1] = tested on: cocklebur (Xanthium strumarium); assay: Test B preemergence
Procedure, shortened: (§1)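 Greenhouse test: chemicals are formulated in a surfactant-containing non-phytotoxic solvent and applied either preemergence to planted seeds or postemergence to plants 2 to 18 cm tall. Response is rated visually versus controls after 13 to 15 days, 0 meaning no effect and 100 complete control.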

[2] = tested on: crabgrass (Digitaria sanguinalis); assay: Test B preemergence
Procedure, shortened: as §1

[3] = tested on: lambsquarters (Chenopodium album); assay: Test B preemergence
Procedure, shortened: as §1

[4] = tested on: pigweed (Amaranthus retroflexus); assay: Test B preemergence
Procedure, shortened: as §1

[5] = tested on: giant foxtail (Setaria faberii); assay: Test B preemergence
Procedure, shortened: as §1

[6] = tested on: velvetleaf (Abutilon theophrasti); assay: Test B preemergence
Procedure, shortened: as §1

corn (Zea mays) [7] = assay: Test B preemergence
Procedure, shortened: as §1

[8] = tested on: Surinam grass (Brachiaria decumbens); assay: Test B preemergence
Procedure, shortened: as §1

[9] = tested on: barnyardgrass (Echinochloa crus-galli); assay: Test B preemergence
Procedure, shortened: as §1

rice (Oryza saliva) [10] = assay: Test B preemergence
Procedure, shortened: as §1

[11] = tested on: morning glory (Ipomoea hederacea); assay: Test B preemergence
Procedure, shortened: as §1

[12] = tested on: duck salad (Heteranthera limosa); assay: Test C flooded paddy test; conditions: for Ducksalad plant response rating: Flooded Paddy, scale 0 to 100, 0 no effect, 100 complete control; for Plant response rating, Ducksalad: scale 0 to 100 (0 no effect, 100 complete control)
Procedure, shortened: (§2)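 Response on a 0-to-100 scale (no effect to complete control) was assessed by eye versus controls. Plants had reached 2 leaves when treated in flooded paddy conditions. The assessment took place after 12–14 days of greenhouse growth.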

[13] = tested on: smallflower flatsedge (Cyperus difformis); assay: Test C flooded paddy test; conditions: for Flatsedge plant response rating: Flooded Paddy, scale 0 to 100, 0 no effect, 100 complete control; for Plant response rating, Flatsedge: scale 0 to 100 (0 no effect, 100 complete control)
Procedure, shortened: as §2

[14] = tested on: barnyardgrass (Echinochloa crus-galli); assay: Test C flooded paddy test; conditions: for Barnyardgrass plant response rating: Flooded Paddy, scale 0 to 100, 0 no effect, 100 complete control; for Plant response rating, Barnyardgrass: scale 0 to 100 (0 no effect, 100 complete control)
Procedure, shortened: as §2

rice (Oryza saliva) [15] = assay: Test C flooded paddy test; conditions: for Rice plant response rating: Flooded Paddy, scale 0 to 100, 0 no effect, 100 complete control; for Plant response rating, Rice: scale 0 to 100 (0 no effect, 100 complete control)
Procedure, shortened: as §2

[16] = tested on: cocklebur (Xanthium strumarium); assay: Test B postemergence
Procedure, shortened: as §1

[17] = tested on: crabgrass (Digitaria sanguinalis); assay: Test B postemergence; conditions: Rate 125 g/ha, scale 0 to 100, 0 no effect, 100 complete control
Procedure, shortened: as §1

[18] = tested on: lambsquarters (Chenopodium album); assay: Test B postemergence; conditions: Rate 125 g/ha, scale 0 to 100, 0 no effect, 100 complete control
Procedure, shortened: as §1

[19] = tested on: pigweed (Amaranthus retroflexus); assay: Test B postemergence; conditions: Rate 125 g/ha, scale 0 to 100, 0 no effect, 100 complete control
Procedure, shortened: as §1

[20] = tested on: giant foxtail (Setaria faberii); assay: Test B postemergence; conditions: Rate 125 g/ha, scale 0 to 100, 0 no effect, 100 complete control
Procedure, shortened: as §1

[21] = tested on: velvetleaf (Abutilon theophrasti); assay: Test B postemergence; conditions: Rate 125 g/ha, scale 0 to 100, 0 no effect, 100 complete control
Procedure, shortened: as §1

wild oat (Avena fatua) = assay: Test B postemergence; conditions: Rate 125 g/ha, scale 0 to 100, 0 no effect, 100 complete control
Procedure, shortened: as §1

[22] = tested on: wheat (Triticum aestivum); assay: Test B postemergence; conditions: Rate 125 g/ha, scale 0 to 100, 0 no effect, 100 complete control
Procedure, shortened: as §1

corn (Zea mays) [23] = assay: Test B postemergence
Procedure, shortened: as §1

[24] = tested on: Surinam grass (Brachiaria decumbens); assay: Test B postemergence
Procedure, shortened: as §1

[25] = tested on: barnyardgrass (Echinochloa crus-galli); assay: Test B postemergence
Procedure, shortened: as §1

[26] = tested on: blackgrass (Alopecurus myosuroides); assay: Test B postemergence
Procedure, shortened: as §1

[27] = tested on: morning glory (Ipomoea hederacea); assay: Test B postemergence; conditions: Rate 125 g/ha, scale 0 to 100, 0 no effect, 100 complete control
Procedure, shortened: as §1

[28] = Preemergence, Rate 500 g/ha, scale 0 to 100, 0 no effect, 100 complete control
[29] = preemergence, Rate 125 g/ha, scale of 0 to 100 where 0 is no effect and 100 is complete control, 13 to 15 days
[30] = flooded paddy test, Rate 125 g/ha
[31] = flooded paddy test, Rate 250 g/ha
[32] = flooded paddy test, Rate 62 g/ha, visually evaluated after 12 to 14 days, 0 = no effect, 100 = complete control
[33] = Rate 125 g/ha, scale 0 to 100, 0 no effect, 100 complete control
[34] = Rate 500 g/ha, scale 0 to 100, 0 is no effect, 100 is complete control, 13 to 15 days
[35] = flooded paddy test, Rate 62 g/ha

COc1cc(N2CCC(n3ccc(C(C)(C)C)n3)C2=O)cc2ccccc12 (stereo not drawn) [Compound 136]
Plant response rating, Cocklebur [1, 28]: 0 | Plant response rating, Cocklebur [1, 29]: 0 | Plant response rating, Crabgrass [2, 28]: 70 | Plant response rating, Crabgrass [2, 29]: 0 | Plant response rating, Lambsquarters [3, 28]: 100 | Plant response rating, Lambsquarters [3, 29]: 100 | Plant response rating, Pigweed [4, 28]: 60 | Plant response rating, Pigweed [4, 29]: 0 | Plant response rating, Foxtail, Giant [5, 28]: 0 | Plant response rating, Foxtail, Giant [5, 29]: 0 | Plant response rating, Velvetleaf [6, 28]: 0 | Plant response rating, Velvetleaf [6, 29]: 0 | Plant response rating, Corn (corn (Zea mays) [7]; [28]): 0 | Plant response rating, Corn (corn (Zea mays) [7]; [29]): 0 | Plant response rating, Surinam grass [8, 28]: 0 | Plant response rating, Surinam grass [8, 29]: 0 | Plant response rating, Barnyardgrass [9, 28]: 0 | Plant response rating, Barnyardgrass [9, 29]: 0 | Plant response rating, Rice (rice (Oryza saliva) [10]; [28]): 0 | Plant response rating, Rice (rice (Oryza saliva) [10]; [29]): 0 | Plant response rating, Morningglory [11, 28]: 0 | Plant response rating, Morningglory [11, 29]: 0 | Ducksalad plant response rating ([12]; Rate 500 g/ha): 0 | Plant response rating, Ducksalad [12, 30]: 0 | Plant response rating, Ducksalad [12, 31]: 0 | Plant response rating (scale 0 to 100), Ducksalad [12, 32]: 0 | Flatsedge plant response rating ([13]; Rate 500 g/ha): 0 | Plant response rating, Flatsedge [13, 30]: 0 | Plant response rating, Flatsedge [13, 31]: 0 | Plant response rating (scale 0 to 100), Flatsedge [13, 32]: 0 | Barnyardgrass plant response rating ([14]; Rate 500 g/ha): 0 | Plant response rating, Barnyardgrass [14, 30]: 0 | Plant response rating, Barnyardgrass [14, 31]: 0 | Plant response rating (scale 0 to 100), Barnyardgrass [14, 32]: 0 | Rice plant response rating (rice (Oryza saliva) [15]; Rate 500 g/ha): 0 | Plant response rating, Rice (rice (Oryza saliva) [15]; [30]): 0 | Plant response rating, Rice (rice (Oryza saliva) [15]; [31]): 0 | Plant response rating (scale 0 to 100), Rice (rice (Oryza saliva) [15]; [32]): 0 | Plant response rating, Cocklebur [16, 33]: 0 | Plant response rating, Cocklebur [16, 34]: 0 | Plant response rating, Crabgrass [17]: 0 | Plant response rating, Lambsquarters [18]: 0 | Plant response rating, Pigweed [19]: 0 | Plant response rating, Foxtail, Giant [20]: 0 | Plant response rating, Velvetleaf [21]: 0 | Plant response rating, Wild Oat (wild oat (Avena fatua)): 0 | Plant response rating, Wheat [22]: 0 | Plant response rating, Corn (corn (Zea mays) [23]; [33]): 0 | Plant response rating, Corn (corn (Zea mays) [23]; [34]): 0 | Plant response rating, Surinam grass [24, 33]: 0 | Plant response rating, Surinam grass [24, 34]: 0 | Plant response rating, Barnyardgrass [25, 33]: 0 | Plant response rating, Barnyardgrass [25, 34]: 0 | Plant response rating, Blackgrass [26, 33]: 0 | Plant response rating, Blackgrass [26, 34]: 0 | Plant response rating, Morningglory [27]: 0

CCCOC(=O)c1cccc(N2CCC(n3ccc(C(C)(C)C)n3)C2=O)c1 (stereo not drawn) [Compound 123]
Plant response rating, Cocklebur [1, 28]: 0 | Plant response rating, Cocklebur [1, 29]: 0 | Plant response rating, Crabgrass [2, 28]: 60 | Plant response rating, Crabgrass [2, 29]: 0 | Plant response rating, Lambsquarters [3, 28]: 60 | Plant response rating, Lambsquarters [3, 29]: 0 | Plant response rating, Pigweed [4, 28]: 70 | Plant response rating, Pigweed [4, 29]: 0 | Plant response rating, Foxtail, Giant [5, 28]: 0 | Plant response rating, Foxtail, Giant [5, 29]: 0 | Plant response rating, Velvetleaf [6, 28]: 0 | Plant response rating, Velvetleaf [6, 29]: 0 | Plant response rating, Corn (corn (Zea mays) [7]; [28]): 0 | Plant response rating, Corn (corn (Zea mays) [7]; [29]): 0 | Plant response rating, Surinam grass [8, 28]: 0 | Plant response rating, Surinam grass [8, 29]: 0 | Plant response rating, Barnyardgrass [9, 28]: 0 | Plant response rating, Barnyardgrass [9, 29]: 0 | Plant response rating, Rice (rice (Oryza saliva) [10]; [28]): 0 | Plant response rating, Rice (rice (Oryza saliva) [10]; [29]): 0 | Plant response rating, Morningglory [11, 28]: 0 | Plant response rating, Morningglory [11, 29]: 0 | Ducksalad plant response rating ([12]; Rate 250 g/ha): 60 | Ducksalad plant response rating ([12]; Rate 500 g/ha): 70 | Plant response rating, Ducksalad [12, 35]: 20 | Plant response rating, Ducksalad [12, 30]: 20 | Flatsedge plant response rating ([13]; Rate 250 g/ha): 50 | Flatsedge plant response rating ([13]; Rate 500 g/ha): 90 | Plant response rating, Flatsedge [13, 35]: 30 | Plant response rating, Flatsedge [13, 30]: 30 | Barnyardgrass plant response rating ([14]; Rate 250 g/ha): 0 | Barnyardgrass plant response rating ([14]; Rate 500 g/ha): 0 | Plant response rating, Barnyardgrass [14, 35]: 0 | Plant response rating, Barnyardgrass [14, 30]: 0 | Rice plant response rating (rice (Oryza saliva) [15]; Rate 250 g/ha): 0 | Rice plant response rating (rice (Oryza saliva) [15]; Rate 500 g/ha): 0 | Plant response rating, Rice (rice (Oryza saliva) [15]; [35]): 0 | Plant response rating, Rice (rice (Oryza saliva) [15]; [30]): 0 | Plant response rating, Cocklebur [16, 33]: 30 | Plant response rating, Cocklebur [16, 34]: 80 | Plant response rating, Crabgrass [17]: 0 | Plant response rating, Lambsquarters [18]: 0 | Plant response rating, Pigweed [19]: 0 | Plant response rating, Foxtail, Giant [20]: 0 | Plant response rating, Velvetleaf [21]: 0 | Plant response rating, Wild Oat (wild oat (Avena fatua)): 0 | Plant response rating, Wheat [22]: 0 | Plant response rating, Corn (corn (Zea mays) [23]; [33]): 0 | Plant response rating, Corn (corn (Zea mays) [23]; [34]): 0 | Plant response rating, Surinam grass [24, 33]: 0 | Plant response rating, Surinam grass [24, 34]: 0 | Plant response rating, Barnyardgrass [25, 33]: 0 | Plant response rating, Barnyardgrass [25, 34]: 0 | Plant response rating, Blackgrass [26, 34]: 0 | Plant response rating, Morningglory [27]: 0
